In US20240246946A1, “MODULATORS OF TREX1” (Constellation Pharmaceuticals, Inc., priority 2021, published 2024):
pIC50: −log10 of the molar value.

What was measured:
[1] = target: T1, full length human TREX1 (Homo sapiens, UniProt Q9NSU2); assay: hTREX1 Biochemical Assay (fluorescence, dsDNA substrate degradation); settings: biochemical, read-out: hTREX1 IC50
T1 construct: N-terminally His-Tev tagged full length human TREX1; made in house; host or cells: E. coli
T1 sequence (Q9NSU2 1-314): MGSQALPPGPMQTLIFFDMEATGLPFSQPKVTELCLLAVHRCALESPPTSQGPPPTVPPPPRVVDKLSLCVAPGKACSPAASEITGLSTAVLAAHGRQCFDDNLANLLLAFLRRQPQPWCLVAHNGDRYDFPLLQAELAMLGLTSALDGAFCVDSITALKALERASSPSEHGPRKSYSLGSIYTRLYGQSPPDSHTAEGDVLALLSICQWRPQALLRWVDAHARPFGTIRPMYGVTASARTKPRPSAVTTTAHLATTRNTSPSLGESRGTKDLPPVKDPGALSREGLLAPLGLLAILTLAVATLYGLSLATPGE
Summary of the method: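 Fluorescence rises as enzyme degrades a quenched TEX615-labelled dsDNA substrate (60 nM) in 50 mM Tris, 150 mM NaCl, 5 mM MgCl2, pH 7.4. Full-length His-Tev-tagged human TREX1, 4 pM, sits with compound 4 hours at 25° C before substrate; reaction 18 hours, stopped with EDTA.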

[2] = target: T2, full length mouse TREX1 (Mus musculus, UniProt Q91XB0); assay: mTREX1 Biochemical Assay (fluorescence, dsDNA substrate degradation); settings: biochemical, read-out: mTREX1 IC50
T2 construct: N-terminally His-Tev tagged full length mouse TREX1; made in house; host or cells: E. coli
T2 sequence (Q91XB0 1-314): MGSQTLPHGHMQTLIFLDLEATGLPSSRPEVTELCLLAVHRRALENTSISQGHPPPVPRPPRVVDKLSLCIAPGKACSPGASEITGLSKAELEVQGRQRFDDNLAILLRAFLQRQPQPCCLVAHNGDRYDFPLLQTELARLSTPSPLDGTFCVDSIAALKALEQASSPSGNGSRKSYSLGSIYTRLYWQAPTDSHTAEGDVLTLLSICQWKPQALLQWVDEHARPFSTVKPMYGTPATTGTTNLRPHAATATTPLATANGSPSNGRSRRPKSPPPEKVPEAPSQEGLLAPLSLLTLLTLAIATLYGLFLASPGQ
Summary of the method: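 Reaction run 18 h at 25° C. with 60 nM TEX615/quencher-labelled dsDNA and 6 pM mouse TREX1 in Tris buffer (pH 7.4, 5 mM MgCl2, 1.0% DMSO), enzyme having sat 4 h with compound across 10 concentrations. EDTA quench; substrate degradation measured as fluorescence increase.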

[3] = target: T3, human TREX2 (residues M44-A279) (Homo sapiens, UniProt Q9BQ50); assay: hTREX2 Biochemical Assay (fluorescence, dsDNA substrate degradation); settings: biochemical selectivity for hTREX1 vs hTREX2
T3 construct: human TREX2 (residues M44-A279, expressed in E. coli); made in house; host or cells: E. coli
T3 sequence (Q9BQ50 44-279 isoform Q9BQ50-1): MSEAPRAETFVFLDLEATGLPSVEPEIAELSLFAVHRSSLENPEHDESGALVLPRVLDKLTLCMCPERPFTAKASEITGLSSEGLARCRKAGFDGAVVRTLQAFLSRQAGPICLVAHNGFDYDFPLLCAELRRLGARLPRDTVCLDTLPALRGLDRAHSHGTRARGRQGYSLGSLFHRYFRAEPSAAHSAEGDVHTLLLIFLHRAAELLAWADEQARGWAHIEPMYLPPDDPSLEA
Protocol: Degradation of the dsDNA liberates free fluorophore to produce a fluorescent signal. Specifically, 7.5 μL of N-terminally His-Tev tagged human TREX2 (residues M44-A279, expressed in E. coli and purified in house) in reaction buffer (50 mM Tris, 150 mM NaCl, 2 mM DTT, 0.1 mg/mL BSA, 0.01% (w/v) Tween-20, 5 mM MgCl2, pH 7.4) was added to a 384-well Black ProxiPlate Plus (PerkinElmer) which already contained compound (150 nL) at varying concentrations as a 10 point dose-response in DMSO. The plate was incubated at 25° C. for 4 hours. Reactions were initiated by adding 7.5 μL of dsDNA substrate (Strand A: 5′ TEX615/GCT AGG CAG 3′; Strand B: 5′ CTG CCT AGC/IAbRQSp (IDT)) in reaction buffer. Final concentrations were 50 pM TREX2, 60 nM dsDNA substrate in reaction buffer with 1.0% DMSO (v/v). After 18 hours at 25° C., reactions were quenched by the addition of 2 μL of 500 mM EDTA. Final concentrations in the quenched reaction mixture were 44 pM TREX2, 53 nM DNA and 59 mM EDTA in a volume of 17 μL. After a 5-minute incubation at room temperature, plates were read in an EnVision plate reader (PerkinElmer) measuring fluorescence at 615 nm following excitation w/570 nm light.

Row | SMILES | pIC50 [1] | pIC50 [2] | hTREX1 vs hTREX2 selectivity [3]
1 | CC(c1nc(C(=O)Nc2cnoc2)c(O)c(=O)n1C)C(c1cnn(CCN2CCN(C(=O)OC(C)(C)C)CC2)c1)c1ccccc1C#N (single isomer, unassigned) [Example 21 D2E1] | < 8.00 | < 8.00 | B (B = 25 to 50-fold selective for hTREX1)
2 | Cc1cc(C(c2cc(F)ccc2C#N)C(C)c2nc(C(=O)Nc3cnoc3)c(O)c(=O)n2C)nn1C (single isomer, unassigned) [Example 112 D2E2] | < 8.00 | < 8.00 | A (A = <25 fold selective for hTREX1)
3 | Cc1cc(C)n(C(c2ccccc2Cl)C(C)c2nc(C(=O)Nc3cnoc3)c(O)c(=O)n2C)n1 (single isomer, unassigned) [Example 136 D1E1] | < 8.00 | < 8.00 | A (A = <25 fold selective for hTREX1)
4 | CC(c1nc(C(=O)Nc2cnoc2)c(O)c(=O)n1C)C(c1cnn(C)c1)c1ccc(O)cc1C#N (single isomer, unassigned) [Example 80 D1E2] | < 8.00 | < 8.00 | C (C = >50 fold selective for hTREX1)
5 | Cc1nccc(C(c2ccccc2C#N)C(C)c2nc(C(=O)Nc3cnoc3)c(O)c(=O)n2C)n1 (single isomer, unassigned) [Example 83 D1E2] | < 8.00 | < 8.00 | A (A = <25 fold selective for hTREX1)
6 | Cc1nn(C)cc1C(c1ccc(F)cc1C#N)C(C)c1nc(C(=O)Nc2cnoc2)c(O)c(=O)n1C (single isomer, unassigned) [Example 56 D1E1] | > 9.00 | > 9.00 | C (C = >50 fold selective for hTREX1)
7 | CC(c1nc(C(=O)Nc2cnoc2)c(O)c(=O)n1C)C(c1cnn(CCN2CCN(C)CC2)c1)c1ccccc1C#N (single isomer, unassigned) [Example 32 D2E1] | < 8.00 | < 8.00 | C (C = >50 fold selective for hTREX1)
8 | CC(c1nc(C(=O)Nc2cnoc2)c(O)c(=O)n1C)C(c1cnn(C)c1)c1cc(F)ccc1C#N (single isomer, unassigned) [Example 14 D2E1] | < 8.00 | < 8.00 | A (A = <25 fold selective for hTREX1)
9 | CC(c1nc(C(=O)Nc2cnoc2)c(O)c(=O)n1C)C(c1ccccc1C#N)c1ccnn1C (single isomer, unassigned) [Example 1 D1E2] | < 8.00 | < 8.00 | A (A = <25 fold selective for hTREX1)
10 | Cc1nn(C)c(C)c1C(c1ccccc1C#N)C(C)c1nc(C(=O)Nc2cnoc2)c(O)c(=O)n1C (single isomer, unassigned) [Example 78 D1E2] | < 8.00 | < 8.00 | A (A = <25 fold selective for hTREX1)
11 | Cc1ccn(C(c2ccccc2C#N)C(C)c2nc(C(=O)Nc3cnoc3)c(O)c(=O)n2C)n1 (single isomer, unassigned) [Example 132 D1E1] | < 8.00 | < 8.00 | A (A = <25 fold selective for hTREX1)
12 | CCn1c(C(C)C(c2cnn(C)c2)c2ccccc2C#N)nc(C(=O)Nc2cnoc2)c(O)c1=O (single isomer, unassigned) [Example 149 D2E2] | < 8.00 | < 8.00 | B (B = 25 to 50-fold selective for hTREX1)
13 | CC(c1nc(C(=O)Nc2cnoc2)c(O)c(=O)n1C)C(c1cnn(CC(F)(F)F)c1)c1ccccc1C#N (single isomer, unassigned) [Example 22 D2E1] | < 8.00 | < 8.00 | B (B = 25 to 50-fold selective for hTREX1)
14 | CC(c1nc(C(=O)Nc2cnoc2)c(O)c(=O)n1C)C(c1cnccn1)c1ccccc1C#N (single isomer, unassigned) [Example 66 D1E1] | > 9.00 | > 9.00 | B (B = 25 to 50-fold selective for hTREX1)
15 | CC(c1nc(C(=O)Nc2cnoc2)c(O)c(=O)n1C)C(c1cnn(CC2COC2)c1)c1ccccc1Cl (single isomer, unassigned) [Example 88 D2E1] | < 8.00 | < 8.00 | A (A = <25 fold selective for hTREX1)
16 | CC(c1nc(C(=O)Nc2cnoc2)c(O)c(=O)n1C)C(c1cc(F)ccc1Cl)c1cn(C)nc1C#N (single isomer, unassigned) [Example 89 D1E1] | < 8.00 | < 8.00 | A (A = <25 fold selective for hTREX1)
17 | CCn1cc(C(c2ccc(F)cc2C#N)C(C)c2nc(C(=O)Nc3cnoc3)c(O)c(=O)n2C)c(C)n1 (single isomer, unassigned) [Example 55 D2E2] | 8.00 to 9.00 | < 8.00 | C (C = >50 fold selective for hTREX1)
18 | CC(c1nc(C(=O)Nc2cnoc2)c(O)c(=O)n1C)C(c1ccccc1Cl)c1nncn1C (single isomer, unassigned) [Example 152 D2E1] | < 8.00 | < 8.00 | B (B = 25 to 50-fold selective for hTREX1)
19 | CC(c1nc(C(=O)Nc2cnoc2)c(O)c(=O)n1C)C(c1ccccc1Cl)c1cn(C)nc1F (single isomer, unassigned) [Example 130 D1E2] | < 8.00 | < 8.00 | A (A = <25 fold selective for hTREX1)
20 | CCn1cc(C(c2ccccc2C#N)C(C)c2nc(C(=O)Nc3cnoc3)c(O)c(=O)n2C)cn1 (single isomer, unassigned) [Example 13 D1E2] | < 8.00 | < 8.00 | B (B = 25 to 50-fold selective for hTREX1)
21 | Cc1cnc(C(c2cc(F)ccc2Cl)C(C)c2nc(C(=O)Nc3cnoc3)c(O)c(=O)n2C)cn1 (single isomer, unassigned) [Example 117 D1E1] | < 8.00 | < 8.00 | A (A = <25 fold selective for hTREX1)
22 | CC(c1nc(C(=O)Nc2cnoc2)c(O)c(=O)n1C)C(c1ccccc1Cl)n1nccc1C#N (single isomer, unassigned) [Example 140 D1E2] | < 8.00 | < 8.00 | A (A = <25 fold selective for hTREX1)
23 | Cc1cn(C(c2ccccc2Cl)C(C)c2nc(C(=O)Nc3cnoc3)c(O)c(=O)n2C)cn1 (single isomer, unassigned) [Example 142 D1E1] | < 8.00 | < 8.00 | A (A = <25 fold selective for hTREX1)
24 | CC(c1nc(C(=O)Nc2cnoc2)c(O)c(=O)n1C)C(c1cnc(C(F)(F)F)cn1)c1ccccc1C#N (single isomer, unassigned) [Example 118 D2E2] | < 8.00 | < 8.00 | A (A = <25 fold selective for hTREX1)
25 | COCCn1ncc(C(c2cc(F)ccc2C#N)C(C)c2nc(C(=O)Nc3cnoc3)c(O)c(=O)n2C)c1C (single isomer, unassigned) [Example 104 D1E2] | < 8.00 | < 8.00 | A (A = <25 fold selective for hTREX1)
